The text below walks through data of patent US4113944A, “Cephalosporin-type antibiotics and process for producing the same” (Meiji Seika Kaisha, Ltd., priority 1974, dated 1978).

By LD50 is commonly meant the dose expected to kill half of the subjects tested. As a reminder, the ED50 is the dose that gives a 50% effect, or the effect in half of the subjects.

The nature of data set [1]: acute toxicity in mice (LD50). To be noted: mouse, in vivo.
The next data set concerns Proteus vulgaris. The data set is described as follows: Minimum Inhibitory Concentration (antimicrobial activity), Proteus vulgaris. Format: cell-based. The following applies: read-out: Minimum Inhibitory Concentration (MIC).
A further data set deals with Escherichia coli. Description: Minimum Inhibitory Concentration (antimicrobial activity), Escherichia coli. Format: cell-based.
Data set [2] concerns Salmonella enteritidis No.11. The data set is described as follows: ED50 in mice suffering from infectious disease, Salmonella enteritidis No.11. Format: in vivo. To be noted: Salmonella enterica. As to the method: (§1) The ED50 values of the above obtained compounds were determined by intravenously administering the compounds to mice suffering from infectious diseases caused by various bacteria and were compared with those obtained using known antibiotics.

For data set [3], the system named is Salmonella typhi W-901-10. The data set is described as follows: ED50 in mice suffering from infectious disease, Salmonella typhi W-901-10. Format: in vivo. To be noted: Salmonella enterica, iv. The method, then:
as §1

Data set [4] has as its system Staphylococcus aureus Smith S-424. Description: ED50 in mice suffering from infectious disease, Staphylococcus aureus Smith S-424. Format: in vivo. As to the method: as §1
Another data set has as its system Salmonella. The data set is described as follows: Minimum Inhibitory Concentration (antimicrobial activity), Salmonella. Format: cell-based.
For another data set, the system named is Proteus vulgaris C-73-9. Description: ED50 in mice suffering from infectious disease, Proteus vulgaris C-73-9. The format is in vivo. As to the method:
as §1

In the next data set the test system is Staphylococcus aureaus. The data set is described as follows: Minimum Inhibitory Concentration (antimicrobial activity), Staphylococcus aureus. Format: cell-based.
The next data set deals with Pseudomonas aeruginose. The data set is described as follows: Minimum Inhibitory Concentration (antimicrobial activity), Pseudomonas. Format: cell-based.
For another data set, the system named is Kurebusiera pneumonia. The data set is described as follows: Minimum Inhibitory Concentration (antimicrobial activity), Kurebusiera pneumonia. The format is cell-based.
Where [5] appears, read: acute toxicity, mice, Example 1 as disodium salt, read-out: LD50.
[6] abbreviates: Salmonella enteritidis No.11, intravenous, mice, Example 1 as disodium salt, read-out: ED50.
[7] abbreviates: C739, Proteus vulgaris C-73-9 (strains produced from Cephalosporinase), intravenous, mice, Example 1 as disodium salt, read-out: ED50.

≈ marks a conversion by molar mass, not a printed value. Like-named read-outs stand apart in the source and are kept apart here.

As for `O=C(Cc1cccs1)N[C@@H]1C(=O)N2C(C(=O)[O-])=C(C[n+]3ccccc3)CS[C@H]12` [Cephaloridine], the LD50 in data set [1] was 3840 mg/kg.
For the compound `O=C(O)Cc1nnc(SCC2=C(C(=O)O)N3C(=O)C(NC(=O)Cc4cccs4)[C@H]3SC2)[nH]1` (some centres unmarked) [Example 1, 7-(2-thienylacetamido)-3-(5-carboxymethyl-1,3,4-triazol-2-yl)thiomethyl-3-cephem-4-carboxylic acid], the MIC in the data set on Proteus vulgaris amounted to 3.13 µg/mL (≈ 6.32 µM); with Escherichia coli, 6.25 µg/mL (≈ 12.6 µM); in the data set on Salmonella, 0.78 µg/mL (≈ 1.57 µM). The LD50 in [1] (setting [5]) stood at 6300 mg/kg. The ED50 was 27 mg/kg in data set [2] (setting [6]); 52 mg/kg in data set [3]; 8.5 mg/kg in [4] (SMITHS424, Staphylococcus aureus Smith S-424, intravenous, mice, Example 1 as dipotassium salt, read-out: ED50); 7.3 mg/kg with Proteus vulgaris C-73-9 (setting [7]).
As for `O=C(O)CCc1nnc(SCC2=C(C(=O)O)N3C(=O)C(NC(=O)Cc4cccs4)[C@H]3SC2)[nH]1` (some centres unmarked) [Example 2, 7-(2-thienylacetamido)-3-[5-(2-carboxyethyl)-1,3,4-triazol-2-yl]thiomethyl-3-cephem-4-carboxylic acid], the MIC came to 0.2 µg/mL (≈ 0.392 µM) in the data set with Proteus vulgaris, 6.25 µg/mL (≈ 12.3 µM) in the data set on Escherichia coli and 0.78 µg/mL (≈ 1.53 µM) in the data set with Salmonella.
On the same counts, the results for `Cn1c(CCC(=O)O)nnc1SCC1=C(C(=O)O)N2C(=O)C(NC(=O)Cc3cccs3)[C@H]2SC1` (some centres unmarked) [Example 3, 7-(2-thienylacetamido)-3-[5-(2-carboxyethyl)-1-methyl-1,3,4-triazol-2-yl]thiomethyl-3-cephem-4-carboxylic acid] are 0.78 µg/mL (≈ 1.49 µM), 1.56 µg/mL (≈ 2.98 µM) and 0.78 µg/mL (≈ 1.49 µM).
The matching figures for `O=C(O)CCc1nnc(SCC2=C(C(=O)O)N3C(=O)C(NC(=O)Cc4cccs4)[C@H]3SC2)n1-c1ccccc1` (some centres unmarked) [Example 4, 7-(2-thienylacetamido)-3-[5-(2-carboxyethyl)-1-phenyl-1,3,4-triazol-2-yl]thiomethyl-3-cephem-4-carboxylic acid]: 1.56 µg/mL (≈ 2.66 µM), 25 µg/mL (≈ 42.7 µM) and 25 µg/mL (≈ 42.7 µM).
On the same counts, the results for `Cn1c(CC(=O)O)nnc1SCC1=C(C(=O)O)N2C(=O)C(NC(=O)Cc3cccs3)[C@H]2SC1` (some centres unmarked) [Example 5, 7-(2-thienylacetamido)-3-(5-carboxymethyl-1-methyl-1,3,4-triazol-2-yl)-thiomethyl-3-cephem-4-carboxylic acid] are 0.2 µg/mL (≈ 0.392 µM), 3.13 µg/mL (≈ 6.14 µM) and 0.78 µg/mL (≈ 1.53 µM).
As for `O=C(Cc1cccs1)NC1C(=O)N2C(C(=O)O)=C(CSc3nnc(C(=O)O)[nH]3)CS[C@H]12` (some centres unmarked) [Example 6, 7-(2-thienylacetamido)-3-(5-carboxy-1,3,4-triazol-2-yl)thiomethyl-3-cephem-4-carboxylic acid], the values for the MIC with Proteus vulgaris, against Escherichia coli and in the data set on Salmonella were 0.2 µg/mL (≈ 0.415 µM), 6.25 µg/mL (≈ 13 µM) and 3.13 µg/mL (≈ 6.5 µM), respectively.
On the same counts, the results for `Cn1c(SCC2=C(C(=O)O)N3C(=O)C(NC(=O)Cc4cccs4)C3SC2)nnc1C(=O)O` (centres unmarked) [Example 7, 7-(2-thienylacetamido)-3-(5-carboxy-1-methyl-1,3,4-triazol-5-yl)-thiomethyl-3-cephem-4-carboxylic acid] are 0.39 µg/mL (≈ 0.787 µM), 1.56 µg/mL (≈ 3.15 µM) and 0.78 µg/mL (≈ 1.57 µM).
On the same counts, the results for `O=C(Cc1cccs1)NC1C(=O)N2C(C(=O)O)=C(CSc3nnc(C(=O)O)n3-c3ccccc3)CSC12` (centres unmarked) [Example 8, 7-(2-thienylacetamido)-3-(5-carboxy-1-phenyl-1,3,4-triazol-5-yl)thiomethyl-3-cephem-4-carboxylic acid] are 0.78 µg/mL (≈ 1.4 µM), 25 µg/mL (≈ 44.8 µM) and 12.5 µg/mL (≈ 22.4 µM).
`Cn1cnnc1SCC1=C(C(=O)O)N2C(=O)C(NC(=O)Cc3cccs3)C2SC1` (centres unmarked) [Example 22, 7-(2-thienylacetamide)-3-(1-methyl-1,3,4-triazol-5-yl)thiomethyl-3-cephem-4-carboxylic acid]: the MIC is 50 µg/mL (≈ 111 µM) in the data set with Proteus vulgaris; 6.25 µg/mL (≈ 13.8 µM) in the data set on Escherichia coli; 0.78 µg/mL (≈ 1.73 µM) in the data set on Staphylococcus aureaus; 1.56 µg/mL (≈ 3.45 µM) in the data set on Pseudomonas aeruginose; 1.56 µg/mL (≈ 3.45 µM) with Salmonella; 0.78 µg/mL (≈ 1.73 µM) with Kurebusiera pneumonia.
For the compound `CC(=O)OCC1=C(C(=O)O)N2C(=O)[C@@H](NC(=O)Cc3cccs3)[C@H]2SC1` [Sodium Cephalotin, 7-(2-thienylacetamido)cephalosporanic acid, reference compound], the MIC was determined as 2.5 µg/mL in the data set with Proteus vulgaris, 6.25 µg/mL against Escherichia coli and 3.13 µg/mL against Salmonella. The LD50 in data set [1] (setting [5]) was determined as 5180 mg/kg. Moreover, the ED50 came out at 480 mg/kg in data set [2] (ENTERITIDIS, iv); 200 mg/kg in data set [3]; 19 mg/kg in data set [4] (Staphylococcus aureus, SMITHS424, iv); 14 mg/kg with Proteus vulgaris C-73-9 (Proteus vulgaris, C739, iv).
On to `Cc1nnc(SCC2=C(C(=O)O)N3C(=O)[C@@H](NC(=O)Cn4cnnn4)[C@H]3SC2)s1` [Sodium Cephazoline], for which, in data set [1] (setting [5]), the LD50 was 3130 mg/kg. In addition, the ED50 came out at 130 mg/kg in data set [2] (setting [6]) and 18.5 mg/kg in the data set on Proteus vulgaris C-73-9 (setting [7]).
